In PubChem BioAssay AID248 (DTP/NCI, 2004):
Where “and” joins values, the source holds several entries; their conditions need not be identical. Equal values may be shown once. Inconclusive results and toxic doses are left out. Cut-off read from the data, not from the text of the source: active = T/C of 150% or more; inactive = T/C below 125%.

System: L1210 leukemia ip in BDF1 mice, survival T/C
Assay: NCI In Vivo Anticancer Drug Screen. Data for tumor model L1210 Leukemia (intraperitoneal) in B6D2F1 (BDF1) mice
Conditions: endpoint: mean survival time, higher = longer survival
Outline: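 Transplantable tumor model; survival measured in treated vs vehicle control mice. Value = treated/control.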

Measured: T/C

O=C1C2C3CC(c4ccccc43)C2N1S(=O)(=O)Cl (stereo unspecified)
inactive: dose: 100.0 mg/kg/injection, schedule: Q04DX002 (ip), vehicle: Klucel (hydroxypropylcellulose) (HPC) 105 % of control | dose: 200.0 mg/kg/injection, schedule: Q04DX002 (ip), vehicle: Klucel (hydroxypropylcellulose) (HPC) 105 % of control | dose: 400.0 mg/kg/injection, schedule: Q04DX002 (ip), vehicle: Klucel (hydroxypropylcellulose) (HPC) 105 % of control

CCOC(=O)NC(C)(C)Cc1ccccc1
inactive: dose: 25.0 mg/kg/injection, schedule: Q01DX009 (ip), vehicle: saline with Tween-80 91 % of control | dose: 25.0 mg/kg/injection, schedule: Q04DX003 (ip), vehicle: saline with Tween-80 101 % of control | dose: 50.0 mg/kg/injection, schedule: Q01DX009 (ip), vehicle: saline with Tween-80 98 % of control | dose: 50.0 mg/kg/injection, schedule: Q04DX003 (ip), vehicle: saline with Tween-80 106 % of control | dose: 100.0 mg/kg/injection, schedule: Q01DX009 (ip), vehicle: saline with Tween-80 96 % of control | dose: 100.0 mg/kg/injection, schedule: Q04DX003 (ip), vehicle: saline with Tween-80 97 % of control and 103 % of control

NC(=O)c1ccccc1NC(=O)Nc1ccc(F)cc1
inactive: dose: 100.0 mg/kg/injection, schedule: Q01DX001 (ip), vehicle: carboxymethylcellulose (CMC) 104 % of control | dose: 100.0 mg/kg/injection, schedule: Q01DX009 (ip), vehicle: carboxymethylcellulose (CMC) 102 % of control and 105 % of control | dose: 100.0 mg/kg/injection, schedule: Q04DX002 (ip), vehicle: carboxymethylcellulose (CMC) 100 % of control and 101 % of control | dose: 100.0 mg/kg/injection, schedule: Q04DX003 (ip), vehicle: carboxymethylcellulose (CMC) 95 % of control | dose: 200.0 mg/kg/injection, schedule: Q01DX001 (ip), vehicle: carboxymethylcellulose (CMC) 101 % of control | dose: 200.0 mg/kg/injection, schedule: Q01DX009 (ip), vehicle: carboxymethylcellulose (CMC) 98 % of control and 105 % of control | dose: 200.0 mg/kg/injection, schedule: Q04DX002 (ip), vehicle: carboxymethylcellulose (CMC) 101 % of control and 107 % of control | dose: 200.0 mg/kg/injection, schedule: Q04DX003 (ip), vehicle: carboxymethylcellulose (CMC) 102 % of control | dose: 400.0 mg/kg/injection, schedule: Q01DX001 (ip), vehicle: carboxymethylcellulose (CMC) 93 % of control | dose: 400.0 mg/kg/injection, schedule: Q01DX009 (ip), vehicle: carboxymethylcellulose (CMC) 94 % of control and 102 % of control | dose: 400.0 mg/kg/injection, schedule: Q04DX002 (ip), vehicle: carboxymethylcellulose (CMC) 93 % of control and 96 % of control | dose: 400.0 mg/kg/injection, schedule: Q04DX003 (ip), vehicle: carboxymethylcellulose (CMC) 91 % of control

CC1CC2C3CC(F)C4=CC(=O)C=CC4(C)C3(F)C(O)CC2(C)C1(O)C(=O)COC(=O)C(C)(C)C (stereo unspecified)
inactive: dose: 100.0 mg/kg/injection, schedule: Q01DX001 (ip), vehicle: steriod suspending solution 106 % of control | dose: 200.0 mg/kg/injection, schedule: Q01DX001 (ip), vehicle: steriod suspending solution 95 % of control | dose: 400.0 mg/kg/injection, schedule: Q01DX001 (ip), vehicle: steriod suspending solution 95 % of control

NCCCC(=S)S
inactive: dose: 100.0 mg/kg/injection, schedule: Q04DX002 (ip), vehicle: saline 95 % of control | dose: 200.0 mg/kg/injection, schedule: Q04DX002 (ip), vehicle: saline 96 % of control and 103 % of control | dose: 400.0 mg/kg/injection, schedule: Q04DX002 (ip), vehicle: saline 96 % of control and 116 % of control

O=C(O)CS(=O)(=O)C(c1ccccc1)c1ccccc1
inactive: dose: 100.0 mg/kg/injection, schedule: Q01DX001 (ip), vehicle: saline 94 % of control | dose: 200.0 mg/kg/injection, schedule: Q01DX001 (ip), vehicle: saline 97 % of control | dose: 400.0 mg/kg/injection, schedule: Q01DX001 (ip), vehicle: saline 96 % of control

Nc1nc2c(nnn2C2CC(CO)C(O)C2O)c(=O)[nH]1 (stereo unspecified)
inactive: dose: 100.0 mg/kg/injection, schedule: Q01DX001 (ip), vehicle: other 104 % of control | dose: 200.0 mg/kg/injection, schedule: Q01DX001 (ip), vehicle: other 105 % of control | dose: 400.0 mg/kg/injection, schedule: Q01DX001 (ip), vehicle: other 109 % of control

N#C/C=C/C1=CCCCC1
inactive: dose: 100.0 mg/kg/injection, schedule: Q04DX003 (ip), vehicle: saline 101 % of control | dose: 200.0 mg/kg/injection, schedule: Q04DX003 (ip), vehicle: saline 97 % of control | dose: 400.0 mg/kg/injection, schedule: Q04DX003 (ip), vehicle: saline 93 % of control
